Measured values as given in patent EP0655457A1, “MORANOLINE DERIVATIVE” (NIPPON SHINYAKU COMPANY, LIMITED, priority 1992, dated 1994).

System: ELAM-1 dependent adhesion of cultured human leukemia HL60 cells
Assay: Binding of HL60 cells to IL-1β-activated human vascular endothelial cells (cell adhesion count)
Assay type: cell-based
Settings: for Cell adhesion count (%): % of control (HL60 bound to IL-1β-activated HUVEC = 100%); for Cell adhesion count: adhered HL60 cells on HUVEC activated with IL-1β 10U/ml
Method: The effect of the synthetic sugar on the binding of activated human vascular endothelial cells and cultured human leukemia HL60 cells
Cultured human vascular endothelial cells were separated from the human umbilical vein by collagenase treatment and cultured in a culture flask coated with 1% gelatin or fibronectin at a concentration of 0.02 mg/cm². The growth medium used was prepared by adding 15% fetal calf serum (FCS), 45 mg/l ECGS, 90 mg/l heparin and 40 mg/l gentamicin to medium 199. The proliferation of the cultured human leukemia cell line HL60 was maintained using 10% FCS-containing RPMI-1640. Both cells were cultured in a CO₂ incubator (5% CO₂, 95% air) at 37°C.
The cultured human umbilical vein endothelial cells (HUVEC) were seeded on a 96-well microtiter plate which had been precoated with 0.1% gelatin and were incubated until the growth became confluent. After the cells were washed with 10% FCS-containing Dulbecco's modified Eagle's medium (DMEM), 100 µl of 10% FCS-DMEM containing recombinant human interleukin-1β (IL-1β) was added. The cells were then cultured in a CO₂ incubator at 37°C for 4 hours (activation). The HL60 cells were washed twice with serum-free DMEM, suspended in 0.5% glutaldehyde-containing Hanks' solution and fixed on wet ice for 30 minutes.
The fixed cells were washed twice with serum-free DMEM to remove the fixative. Then, 10% FCS-containing DMEM was added to the cells so as to provide a suspension of 2x10⁶ cells/ml, which was then preserved on wet ice till use.
The HUVEC activated above was washed with 10% FCS-containing DMEM and 50µl of 10% FCS-DMEM containing either anti-ELAM-1 antibody (BBA 2, British Biotechnology Ltd., Abinton) or the test substance was added followed by incubation at room temperature for 30 minutes. The fixed HL60 cells were added in 50 µl aliquots and the incubation was further continued at room temperature for 45 minutes.
After the unbound HL60 cells were washed off, the center of each well was photographed and the number of adhered cells in the photographing field was counted. With the number of HL60 cells bound to the IL-1β-activated HUVEC being taken as 100%, the effect of addition of the test substance was evaluated.

[1] = concentration of 500 µg/ml, referring to Table 2
[2] = concentration of 100 µg/ml, referring to Table 1

6-O-(5-acetamido-3,5-dideoxy-D-glycero-α-D-galacto-2-nonulopyranosylono-1',5-N-lactam)-1,5-dideoxy-1,5-imino-D-galactitol [Example (10)]
Cell adhesion count (%) (Table 2, 50 µg/ml, n=6): 93.4% | Cell adhesion count (Table 2, 50 µg/ml, n=6): 494.7 | Cell adhesion count (%) (Table 2, 500 µg/ml, n=6): 82.5% | Cell adhesion count (Table 2, 500 µg/ml, n=6): 436.2 | inhibit the adhesion of HL60 cells to activated HUVEC [1]: 17.5%

CC(=O)N1C(=O)C2(OCC3NCC(O)C(O)C3O)CC(O)C1C(C(O)C(O)CO)O2 [Example (8), 6-O-(5-acetamido-3,5-dideoxy-D-glycero-α-D-galacto-2-nonulopyranosylono-1',5-N-lactam)-1,5-dideoxy-1,5-imino-D-glucitol]
Cell adhesion count (%) (Table 2, 50 µg/ml, n=6): 89.6% | Cell adhesion count (Table 2, 50 µg/ml, n=6): 473.7 | Cell adhesion count (%) (Table 2, 500 µg/ml, n=6): 81.1% | Cell adhesion count (Table 2, 500 µg/ml, n=6): 428.5 | inhibit the adhesion of HL60 cells to activated HUVEC [1]: 18.9%

CC(=O)N[C@H]1[C@H]([C@H](O)[C@H](O)CO)O[C@@](OC[C@@H]2[C@@H](O)[C@H](O)[C@@H](O)CN2C)(C(=O)O)C[C@@H]1O [Example (9), O-(5-acetamido-3,5-dideoxy-D-glycero-α-D-galacto-2-nonulopyranosylonic acid)-(2→6)-1,5-dideoxy-N-methyl-1,5-imino-D-glucitol]
Cell adhesion count (%) (Table 1, 100 µg/ml, n=5): 49.1% | Cell adhesion count (Table 1, 100 µg/ml, n=5): 188.4 | inhibit the adhesion of HL60 cells to activated HUVEC [2]: 50.9%

CC(=O)N[C@H]1[C@H]([C@H](O)[C@H](O)CO)O[C@@](OC[C@@H]2[C@H](O)[C@H](O)[C@@H](O)CN2C)(C(=O)O)C[C@@H]1O [Example (11), O-(5-acetamido-3,5-dideoxy-D-glycero-α-D-galacto-2-nonulopyranosylonic acid)-(2→6)-1,5-dideoxy-N-methyl-1,5-imino-D-galactitol]
Cell adhesion count (%) (Table 1, 100 µg/ml, n=5): 40.4% | Cell adhesion count (Table 1, 100 µg/ml, n=5): 155.0 | inhibit the adhesion of HL60 cells to activated HUVEC [2]: 59.6%
